In general, half-life refers to the time needed for the level to fall by half in the phase considered.

The structures appear in SMILES notation.

This is an account of results in patent US20260327204A1, “DEGRADERS OF CYCLIN-DEPENDENT KINASE 12/13, COMPOSITIONS, AND USES THEREOF” (ZHEJIANG UNIVERSITY, priority 2023, published 2026).

The target of data set [1] is T1, CDK13 (Homo sapiens, UniProt Q14004). Briefly: Western blot degradation of CDK13 (Example 2). The data set is classed as cell-based. Further details: degradation of CDK12/13 protein in leukemia cells KASUMI-1, MV4-11, and Jurkat; endogenous in cells. To be noted: DC50 classes; cell line not given; read-out: CDK13 degradation Activity. On the technique in general: Immunoblotting shows a protein as a band on a membrane.
T1 sequence (Q14004 whole entry): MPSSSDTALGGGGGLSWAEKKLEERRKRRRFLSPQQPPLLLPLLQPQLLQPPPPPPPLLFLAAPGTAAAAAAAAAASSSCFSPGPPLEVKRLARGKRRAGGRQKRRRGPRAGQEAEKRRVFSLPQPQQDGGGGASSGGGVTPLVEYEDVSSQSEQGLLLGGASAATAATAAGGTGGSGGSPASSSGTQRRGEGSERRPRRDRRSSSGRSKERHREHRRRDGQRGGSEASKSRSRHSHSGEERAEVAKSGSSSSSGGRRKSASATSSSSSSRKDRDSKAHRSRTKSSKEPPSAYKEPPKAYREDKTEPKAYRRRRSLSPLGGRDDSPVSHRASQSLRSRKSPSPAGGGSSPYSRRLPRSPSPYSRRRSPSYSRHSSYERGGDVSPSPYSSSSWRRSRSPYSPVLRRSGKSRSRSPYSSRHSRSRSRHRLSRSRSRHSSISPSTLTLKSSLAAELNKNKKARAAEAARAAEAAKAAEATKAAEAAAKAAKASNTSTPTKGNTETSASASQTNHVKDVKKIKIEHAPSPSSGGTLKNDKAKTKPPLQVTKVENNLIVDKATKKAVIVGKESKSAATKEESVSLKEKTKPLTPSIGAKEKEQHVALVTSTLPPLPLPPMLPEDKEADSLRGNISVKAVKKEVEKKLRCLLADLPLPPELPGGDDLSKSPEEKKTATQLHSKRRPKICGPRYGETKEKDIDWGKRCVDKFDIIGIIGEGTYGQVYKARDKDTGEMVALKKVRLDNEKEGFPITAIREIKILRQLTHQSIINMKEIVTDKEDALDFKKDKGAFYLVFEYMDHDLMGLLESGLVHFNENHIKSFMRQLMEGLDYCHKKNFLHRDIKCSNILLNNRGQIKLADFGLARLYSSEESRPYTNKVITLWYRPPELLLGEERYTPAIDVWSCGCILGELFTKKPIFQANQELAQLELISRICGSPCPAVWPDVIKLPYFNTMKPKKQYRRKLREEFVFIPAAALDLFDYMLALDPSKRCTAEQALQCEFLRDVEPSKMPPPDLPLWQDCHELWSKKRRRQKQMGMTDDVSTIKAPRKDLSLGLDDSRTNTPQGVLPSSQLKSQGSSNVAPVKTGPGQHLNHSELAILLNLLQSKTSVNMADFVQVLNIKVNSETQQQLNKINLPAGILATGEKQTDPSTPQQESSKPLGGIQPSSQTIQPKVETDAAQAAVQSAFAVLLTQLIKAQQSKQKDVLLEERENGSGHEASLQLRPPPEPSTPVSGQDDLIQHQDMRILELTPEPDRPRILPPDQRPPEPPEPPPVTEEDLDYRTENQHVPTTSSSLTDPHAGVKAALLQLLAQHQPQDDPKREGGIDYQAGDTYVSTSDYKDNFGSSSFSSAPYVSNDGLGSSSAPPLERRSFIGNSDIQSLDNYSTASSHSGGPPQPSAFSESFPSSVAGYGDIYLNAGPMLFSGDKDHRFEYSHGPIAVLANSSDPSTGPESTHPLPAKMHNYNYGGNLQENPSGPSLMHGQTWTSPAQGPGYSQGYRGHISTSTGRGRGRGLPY
T1 sequence (O75909 whole entry partner): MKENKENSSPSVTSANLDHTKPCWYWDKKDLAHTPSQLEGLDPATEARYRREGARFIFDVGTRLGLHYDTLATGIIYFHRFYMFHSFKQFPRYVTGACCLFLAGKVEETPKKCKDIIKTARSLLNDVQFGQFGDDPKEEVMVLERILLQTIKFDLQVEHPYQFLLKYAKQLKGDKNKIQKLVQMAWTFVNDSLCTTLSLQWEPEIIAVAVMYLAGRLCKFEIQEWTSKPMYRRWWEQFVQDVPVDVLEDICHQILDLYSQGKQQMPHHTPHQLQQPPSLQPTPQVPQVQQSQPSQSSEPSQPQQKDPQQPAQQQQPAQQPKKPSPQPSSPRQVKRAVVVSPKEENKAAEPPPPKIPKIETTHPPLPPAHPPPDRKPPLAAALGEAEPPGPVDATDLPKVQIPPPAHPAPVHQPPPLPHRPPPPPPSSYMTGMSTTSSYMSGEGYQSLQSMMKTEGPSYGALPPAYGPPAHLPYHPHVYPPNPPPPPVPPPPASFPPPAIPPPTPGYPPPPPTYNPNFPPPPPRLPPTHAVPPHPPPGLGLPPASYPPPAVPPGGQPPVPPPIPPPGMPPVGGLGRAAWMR

Data set [2] in a line: Liver microsome stability, monkey. In kind it is in vitro ADME. To be noted: liver microsomes. As for the experimental part: (§1) • Compounds: Ketanserin, Formula 18, Formula 45 • Liver microsomes: Human liver microsomes (purchased from BioreclamationIVT); Dog, mouse, rat, and monkey liver microsomes (purchased from Xenotech)
(§2) Preparation of 500 μM compound solution: Add 5 μL of 10 mM compound solution and 95 μL of DMSO to an EP tube.
(§3) Preparation of solution containing 0.75 mg/mL liver microsomes and 1.5 μM compound: Add 1.5 μL of the 500 μM compound solution, 18.75 μL of the 20 mg/mL liver microsome solution, and 479.75 μL of PBS to an EP tube.
(§4) Preparation of 6 mM NADPH solution: Dissolve 5 mg of NADPH in 1 mL of PBS solution.
(§5) Add 30 μL of the solution containing 0.75 mg/mL liver microsomes and a concentration gradient of the compound to a 96-well plate. Add 15 μL of the 6 mM NADPH solution and 150 μL of a 1:1 acetonitrile:methanol solution containing an internal standard (IS). Vortex and centrifuge at 6,000 rpm for 10 min. 80 μL of the supernatant from each concentration sample is transferred to a 96-well plate containing 140 μL of pure water for LC/MS detection (injection volume of […]). […]
(§6) 80 μL of the supernatant from each well is transferred to a 96-well plate containing 140 μL of pure water for LC/MS detection (injection volume of […]). The compound concentration value is determined by comparing the corresponding mass spectrometry peak area with the standard curve. […]
On the technique in general: Microsomes from liver hold many membrane-bound enzymes, among them those of drug oxidation.

Data set [3] is described as follows: Liver microsome stability, human. In kind it is in vitro ADME. The settings on record: liver microsomes. The method, then: as §1, §2, §3, §4, §5, §6
For data set [4], the target named is T2, CDK12 (Homo sapiens, UniProt Q9NYV4). The data set can be described thus: Western blot degradation of CDK12 (Example 2). Further details: degradation of CDK12/13 protein in leukemia cells KASUMI-1, MV4-11, and Jurkat; endogenous in cells. The data set is classed as cell-based. The settings on record: DC50 classes; cell line not given; read-out: CDK12 degradation Activity. Summed up:
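Leukemia lines KASUMI-1, MV4-11, Jurkat, plus MDA-MB-231 for a concentration series, treated at 0.01–3 μM for 3–48 h at 37 °C against DMSO control. Lysates in 4% SDS; CDK12/13 band intensity normalized to β-Actin or GAPDH to give degradation rate.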

Data set [5] in a line: Liver microsome stability, rat. In kind it is in vitro ADME. To be noted: liver microsomes. As for the experimental part: as §1, §2, §3, §4, §5, §6
A short description of data set [6]: Liver microsome stability, dog. In kind it is in vitro ADME. The settings on record: liver microsomes. As for the experimental part: as §1, §2, §3, §4, §5, §6
Data set [7] deals with T1, CDK13. The data set can be described thus: Western blot degradation of CDK13 (Example 3). In kind it is cell-based. Further details: degradation of CDK12/13 protein in leukemia cells KASUMI-1, MV4-11, and Jurkat; endogenous in cells.
The target in data set [8] is T2, CDK12. The data set can be described thus: Reversal of CDK12 degradation by proteasome inhibitor MG132, Western blot. Further details: endogenous in cells. To be noted: MDA-MB-231, 24 h treatment, MG132 added 12 h before sample collection. The data set is classed as cell-based. As for the experimental part: (§7) • Cell lines: HCT-116, Jurkat, or MDA-MB-231 • Culture medium: DMEM/RIPM-1640+10% Hyclone serum • Compound dissolution method: The compounds (small molecule conjugates as shown in Formulae 101-147, MG132) were dissolved in DMSO to prepare a 50 mM stock solution and then diluted to the corresponding concentrations.
(§8) (3) Compound treatment: The 50 mM compound stock solution was diluted with cell culture medium to a final concentration of 0.01 μM-3 μM. Cells were incubated in a 37 °C incubator with 5% CO2 for 3 h-48 h. The DMSO group served as the negative control.

For data set [9], the target named is T1, CDK13. Briefly: Reversal of CDK13 degradation by proteasome inhibitor MG132, Western blot. To be noted: MDA-MB-231, 24 h treatment, MG132 added 12 h before sample collection. Further details: endogenous in cells. The data set is classed as cell-based. The method, then:
as §7, §8

The next data set has as its target T3, hERG channel (Homo sapiens, UniProt Q12809).
T3 construct: manual patch clamp of tail current
Briefly: Manual patch-clamp of hERG channel currents stably expressed in HEK293 cells. The settings on record: 0.3 μM-30 μM, HEK293, room temperature. In kind it is cell-based. As for the experimental part: III. Manual Patch-Clamp Detection of the Effect of Compounds on hERG Channel Currents Stably Expressed in HEK293 Cells
A 30 mM stock solution of compound 147 was prepared in DMSO. The stock solution was serially diluted with DMSO to prepare secondary stock solutions of 10 mM, 3 mM, 1 mM, and 0.3 mM. 10 μL of the secondary stock solution was diluted in 10 mL of extracellular solution to prepare final concentrations of 30 μM, […], 3 μM, 1 μM, and 0.3 μM for electrophysiological detection. A 10 mM stock solution of the positive control, cisapride, was prepared in DMSO. The stock solution was serially diluted with DMSO to prepare secondary stock solutions of 1000 μM, 100 μM, 10 μM, 1 μM, and 0.1 μM. 10 μL of the secondary stock solution was diluted in 10 mL of extracellular solution to prepare final concentrations of 1000 nM, 100 nM, 10 nM, 1 nM, and 0.1 nM for electrophysiological detection. […]
d. […] The current was recorded once every 15 s.
e. The hERG potassium channel current was recorded at room temperature before drug addition. […]
The original data hERG tail current peak values were extracted from the PatchMaster software. The current inhibition rate was calculated using the following formula:
The mean and standard error were calculated for each concentration. […]

For a further data set, the system named is CCNK. Briefly: Reversal of CCNK degradation by proteasome inhibitor MG132, Western blot. The data set is classed as cell-based. The settings on record: MDA-MB-231, 24 h treatment, MG132 added 12 h before sample collection. The method, then:
as §7, §8
In the figures, CDK12, CDK13, and CCNK are the target proteins under study, and β-Actin and GAPDH are the internal reference proteins. Internal reference proteins are used to indicate the total protein amount in each experimental group for quantitative analysis.

A short description of data set [10]: In vivo pharmacokinetics in mice. The settings on record: mouse, plasma, ip, 30 mg/kg, intraperitoneal.
Data set [11] concerns the target T2, CDK12. The data set can be described thus: Western blot degradation of CDK12 (Example 3). Further details: degradation of CDK12/13 protein in leukemia cells KASUMI-1, MV4-11, and Jurkat; endogenous in cells. The data set is classed as cell-based.
Data set [12] has as its system serine 2 in the C-terminal domain of RNA polymerase II (CTD-pSer2). The data set can be described thus: Phosphorylation of serine 2 in the C-terminal domain of RNA polymerase II, Western blot. In kind it is cell-based. The settings on record: MDA-MB-231, 24 h, concentration gradient. The method, then: Protein Western blot was used to determine the degradation of CDK12/13 protein in colorectal cancer cells HCT-116, breast cancer cells MDA-MB-231, and leukemia cells Jurkat. The two compounds with the best degradation effects were further validated for their ability to degrade CDK12/13 protein in MDA-MB-231 cells using a concentration gradient. The effect of the compounds on the phosphorylation of serine 2 in the C-terminal domain of RNA polymerase II (CTD-pSer2) was also measured.
as §8

T2 sequence (Q9NYV4 whole entry): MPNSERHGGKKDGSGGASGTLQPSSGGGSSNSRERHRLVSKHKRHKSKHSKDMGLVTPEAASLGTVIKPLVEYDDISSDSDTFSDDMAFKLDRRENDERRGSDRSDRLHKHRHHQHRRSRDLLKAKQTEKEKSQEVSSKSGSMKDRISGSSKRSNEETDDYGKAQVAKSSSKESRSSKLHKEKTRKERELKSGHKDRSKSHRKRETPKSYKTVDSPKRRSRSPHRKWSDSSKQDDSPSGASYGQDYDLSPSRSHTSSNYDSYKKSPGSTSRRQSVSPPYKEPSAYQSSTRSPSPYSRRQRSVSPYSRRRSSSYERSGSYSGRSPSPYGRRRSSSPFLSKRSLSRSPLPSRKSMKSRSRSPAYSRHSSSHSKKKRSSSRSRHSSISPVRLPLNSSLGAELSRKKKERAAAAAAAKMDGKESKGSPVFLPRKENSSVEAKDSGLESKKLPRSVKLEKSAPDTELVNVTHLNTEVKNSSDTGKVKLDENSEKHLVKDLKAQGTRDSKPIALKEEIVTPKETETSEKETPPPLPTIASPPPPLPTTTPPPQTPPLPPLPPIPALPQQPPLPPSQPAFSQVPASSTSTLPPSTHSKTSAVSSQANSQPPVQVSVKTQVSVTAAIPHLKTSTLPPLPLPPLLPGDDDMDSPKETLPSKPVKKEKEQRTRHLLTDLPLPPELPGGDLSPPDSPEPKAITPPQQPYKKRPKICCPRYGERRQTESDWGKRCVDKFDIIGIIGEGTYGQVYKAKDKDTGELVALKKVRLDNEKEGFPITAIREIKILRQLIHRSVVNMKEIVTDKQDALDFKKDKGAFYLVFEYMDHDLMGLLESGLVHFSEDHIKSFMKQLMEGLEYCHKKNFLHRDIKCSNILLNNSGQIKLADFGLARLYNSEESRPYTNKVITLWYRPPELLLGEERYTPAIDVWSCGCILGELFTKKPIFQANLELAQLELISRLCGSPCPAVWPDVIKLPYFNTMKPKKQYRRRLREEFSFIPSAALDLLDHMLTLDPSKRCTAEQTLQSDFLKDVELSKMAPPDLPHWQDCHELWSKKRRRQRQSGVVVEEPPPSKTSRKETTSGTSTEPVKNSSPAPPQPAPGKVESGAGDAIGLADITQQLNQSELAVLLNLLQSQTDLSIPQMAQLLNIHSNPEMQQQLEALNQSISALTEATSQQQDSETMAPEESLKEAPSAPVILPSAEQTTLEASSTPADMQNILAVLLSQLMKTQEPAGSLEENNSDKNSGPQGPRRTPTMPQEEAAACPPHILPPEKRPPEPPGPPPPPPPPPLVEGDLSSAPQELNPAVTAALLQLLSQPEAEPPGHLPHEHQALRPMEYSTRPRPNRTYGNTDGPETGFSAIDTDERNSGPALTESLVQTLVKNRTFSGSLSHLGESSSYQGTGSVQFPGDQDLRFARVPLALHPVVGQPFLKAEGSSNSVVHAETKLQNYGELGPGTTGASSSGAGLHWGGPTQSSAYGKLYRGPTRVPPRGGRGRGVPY
T2 sequence (O75909 whole entry partner): as the sequence (O75909 whole entry partner) above
T3 sequence (Q12809 whole entry): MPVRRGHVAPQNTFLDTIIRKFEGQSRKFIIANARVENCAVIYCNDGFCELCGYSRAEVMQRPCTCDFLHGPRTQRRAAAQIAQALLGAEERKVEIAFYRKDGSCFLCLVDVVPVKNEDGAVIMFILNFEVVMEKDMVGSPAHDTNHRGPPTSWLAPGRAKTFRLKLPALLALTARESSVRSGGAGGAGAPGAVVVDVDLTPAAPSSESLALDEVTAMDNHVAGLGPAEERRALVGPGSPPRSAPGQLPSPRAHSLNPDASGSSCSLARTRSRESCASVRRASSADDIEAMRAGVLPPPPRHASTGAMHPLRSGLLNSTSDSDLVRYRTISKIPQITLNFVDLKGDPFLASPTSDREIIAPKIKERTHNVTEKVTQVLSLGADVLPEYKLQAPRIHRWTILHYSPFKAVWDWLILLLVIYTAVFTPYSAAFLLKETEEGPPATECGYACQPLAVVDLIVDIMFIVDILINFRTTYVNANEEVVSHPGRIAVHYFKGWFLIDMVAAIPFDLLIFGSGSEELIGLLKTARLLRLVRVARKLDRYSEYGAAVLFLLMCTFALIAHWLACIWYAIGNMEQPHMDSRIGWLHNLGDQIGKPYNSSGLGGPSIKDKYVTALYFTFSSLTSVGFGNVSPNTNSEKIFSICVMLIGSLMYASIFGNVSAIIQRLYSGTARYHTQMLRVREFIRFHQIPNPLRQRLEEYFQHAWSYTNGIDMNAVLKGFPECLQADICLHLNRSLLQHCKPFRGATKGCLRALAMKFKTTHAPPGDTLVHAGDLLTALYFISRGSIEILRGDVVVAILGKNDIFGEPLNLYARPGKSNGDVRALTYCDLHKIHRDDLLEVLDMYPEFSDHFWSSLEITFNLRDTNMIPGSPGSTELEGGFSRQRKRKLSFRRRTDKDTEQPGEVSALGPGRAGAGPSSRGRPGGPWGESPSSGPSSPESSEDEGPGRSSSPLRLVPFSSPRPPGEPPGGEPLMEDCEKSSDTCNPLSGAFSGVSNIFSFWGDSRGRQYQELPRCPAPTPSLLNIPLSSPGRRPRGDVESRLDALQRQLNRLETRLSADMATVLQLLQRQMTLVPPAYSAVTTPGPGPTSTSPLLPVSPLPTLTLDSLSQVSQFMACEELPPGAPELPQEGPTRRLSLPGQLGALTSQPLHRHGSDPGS

On to `Cc1ncsc1-c1ccc([C@H](C)NC(=O)[C@@H]2C[C@@H](O)CN2C(=O)[C@@H](NC(=O)CN2CCN(c3ccc(-c4ccc(N(C(=O)NCc5ccccc5)[C@H]5CC[C@H](Nc6ccc(C#N)cn6)CC5)cc4)cn3)CC2)C(C)(C)C)cc1` [Formula 18], for which the DC50 on CDK13 [1] and at CDK12 [4] was < 100 nM in each case. The half-life in [2], in data set [3], in [5] and in data set [6] was > 45 min each time.
Consider `CC(=O)N(c1ccc(-c2ccc(N3CCN(CC(=O)N[C@H](C(=O)N4C[C@H](O)C[C@H]4C(=O)N[C@@H](C)c4ccc(-c5scnc5C)cc4)C(C)(C)C)CC3)nc2)cc1)[C@H]1CC[C@H](Nc2ncc3ccccc3n2)CC1` [Formula 147, (2S,4R)-1-((S)-3,3-dimethyl-2-(2-(4-(5-(4-(N-((1R,4R)-4-(quinazolin-2-ylamino)cyclohexyl)acetamido)phenyl)pyridin-2-yl)piperazin-1-yl)acetamido)butanoyl)-4-hydroxy-N—((S)-1-(4-(4-methylthiazol-5-yl)phenyl)ethyl)pyrrolidine-2-carboxamide], for which the DC50 at CDK13 [7] (DC50 classes, cell line not given, read-out: CDK13 degradation Activity) is < 100 nM; at CDK13 [7] (HCT116, colorectal cancer cells, read-out: CDK13 DC50), 15 nM; at CDK13 [7] (KASUMI-1, leukemia cells, read-out: CDK13 DC50) it was 10 nM; on CDK13 [7] (MDA-MB-231, breast cancer cells, read-out: CDK13 DC50) it was 9 nM; at CDK12 [11] (DC50 classes, cell line not given, read-out: CDK12 degradation Activity), < 100 nM; on CDK12 [11] (HCT116, colorectal cancer cells, read-out: CDK12 DC50) it was 13 nM. Further, the DC50 on CDK12 [11] (KASUMI-1, leukemia cells, read-out: CDK12 DC50) is 17 nM; at CDK12 [11] (MDA-MB-231, breast cancer cells, read-out: CDK12 DC50), 15 nM. In addition, the “reversal of CDK12 degradation by MG132” value at CDK12 [8] was “can reverse the degradation of CDK12/13 and CCNK”. Besides, the “reversal of CDK13 degradation by MG132” value on CDK13 [9] was “can reverse the degradation of CDK12/13 and CCNK”. Moreover, the “inhibitory effect on the hERG channel” value on hERG channel is reported as “weak or no inhibitory effect on the hERG channel”. The “reversal of CCNK degradation by MG132” value in the data set with CCNK is “can reverse the degradation of CDK12/13 and CCNK”. The half-life in data set [10] was 155 min.
Turning to `N#Cc1ccc(NC2CCC(N(C(=O)NCc3ccccc3)c3ccc(-c4ccc(=O)n(CCOCCOCCNc5cccc6c5C(=O)N(C5CCC(=O)NC5=O)C6=O)c4)cc3)CC2)nc1` (stereo not shown) [Formula 47], the DC50 at CDK13 [1] lay within 1000 to 3000 nM; at CDK12 [4] it was 500 to 1000 nM. For the same molecule, in data set [12], the “phosphorylation of serine 2 in the C-terminal domain of RNA polymerase II (CTD-pSer2)” value was “can dose-dependently downregulate the phosphorylation of serine 2”.
